From ChEMBL document CHEMBL1141806, “Gloeolactone, a New Epoxy Lactone from a Blue-Green Alga” (J Nat Prod, 1998) come the findings set out here.

Activity calls are given as the source filed them. No cut-off for these calls is given here.

The nature of series [1]: Toxicity against brine shrimp at 125 ug/mL. In kind it is organism-based. The following applies: artemia, in vivo; read-out: Activity.
The test system of series [2] is Vibrio harveyi. The experiment in a line: Antimicrobial activity against Vibrio harveyi. In kind it is functional, organism-based.

On to `CC/C=C\C[C@H]1O[C@@H]1/C=C/C1CCCCCCCC(=O)O1` (some centres not stated) [GLOEOLACTONE], for which the mortality at 125 ug/mL in series [1] came to 100%. Further, in series [2], the outcome was inactive.
